Assay results reported in patent publication EP0652220A1, “CEPHALOSPORIN DERIVATIVE” (TAISHO PHARMACEUTICAL CO. LTD, priority 1992, dated 1994).

Tests used:
[1] = concentration of the drug in blood after oral administration to mice; format: in vivo, male ICR strain mice; parameters: unit not given here; settings: 20 mg/kg suspended in 5% gum arabic, bioassay (Bacillus cereus S1101)
Protocol: Three male ICR strain mice (4 weeks old) for each group were administered orally with the test drug, and the change of the concentration of the drug in blood was measured with the lapse of time. Dose of drug: 20 mg/kg (suspended in 5% gum arabic) Quantitative method: Bioassay method (test bacteria: Bacillus cereus S1101)

[2] = tested on: Serratia marcescens IID 618; assay: antibacterial test, agar plate dilution method; format: cell-based; settings: inoculum size 10⁶ cells/ml
Protocol: (§1) The antibacterial test against various bacteria was carried out by the agar plate dilution method (inoculum size : 10⁶ cells/ml), and the results are shown in the following Table 1.

[3] = tested on: Proteus mirabilis IFO 3849; assay: antibacterial test, agar plate dilution method; format: cell-based; settings: inoculum size 10⁶ cells/ml
Protocol: as §1

[4] = tested on: Morganella morganii IID 602; assay: antibacterial test, agar plate dilution method; format: cell-based; settings: inoculum size 10⁶ cells/ml
Protocol: as §1

[5] = tested on: Staphylococcus epidermidis sp-al-1; assay: antibacterial test, agar plate dilution method; format: cell-based; settings: inoculum size 10⁶ cells/ml
Protocol: as §1

[6] = tested on: Haemophilus influenzae ATCC 19418; assay: antibacterial test, agar plate dilution method; format: cell-based; settings: inoculum size 10⁶ cells/ml
Protocol: as §1

[7] = tested on: Staphylococcus aureus 209P-JP; assay: antibacterial test, agar plate dilution method; format: cell-based; settings: inoculum size 10⁶ cells/ml
Protocol: as §1

[8] = tested on: Eschelichia coli NIHJ JC-2; assay: antibacterial test, agar plate dilution method; format: cell-based; settings: inoculum size 10⁶ cells/ml
Protocol: as §1

[9] = tested on: Enterococcus faecalis CSJ 1212; assay: antibacterial test, agar plate dilution method; format: cell-based; settings: inoculum size 10⁶ cells/ml
Protocol: as §1

[10] = tested on: Klebsiella pneumoniae IFO 3317; assay: antibacterial test, agar plate dilution method; format: cell-based; settings: inoculum size 10⁶ cells/ml
Protocol: as §1

[11] = mortality after a single intraperitoneal dose in mice; format: in vivo, male ICR strain mice; settings: single dose 4,000 mg/kg intraperitoneal, 50 ml/kg (saline), 3 mice per group, observation for 14 days
Protocol: The mortality after a single dose of the test drug was measured using 3 male ICR strain mice (4 weeks old) for each group. Administration route : intraperitoneal Administration volume : 50 ml/kg (saline) Dose : 4,000 mg/kg Observation period : for 14 days after the administration The results are shown in Table 3.

SMILES | concentration of the drug in blood ([1]; 0.25 hour after administration) | concentration of the drug in blood ([1]; 0.5 hour after administration) | concentration of the drug in blood ([1]; 1.0 hour after administration) | concentration of the drug in blood ([1]; 2.0 hour after administration) | concentration of the drug in blood ([1]; 4.0 hour after administration) | antibacterial activity [2] | antibacterial activity [3] | antibacterial activity [4] | antibacterial activity [5] | antibacterial activity [6] | antibacterial activity [7] | antibacterial activity [8] | antibacterial activity [9] | antibacterial activity [10] | Mortality [11]
C=CC1=C(C(=O)O)N2C(=O)[C@@H](NC(=O)/C(=N\O)c3csc(N)n3)[C@H]2SC1 [C, Cefnidir] | 1.8 | 2.0 | 2.5 | 1.2 | 0.1 | 0.78 | 0.20 | 0.78 | 0.39 | 0.39 | 0.39 | 0.39 | 1.56 | 0.10 | 
C#CCSC1=C(C(=O)OCOC(=O)C(C)(C)C)N2C(=O)[C@@H](NC(=O)/C(=N\O)c3csc(N)n3)[C@H]2SC1 [E, pivaloyloxymethyl 7β-{2-(2-aminothiazol-4-yl)-2-[(Z)-hydroxyimino]acetamido}-3-(2-propynyl)thio-3-cephem-4-carboxylate] | 14.0 | 18.4 | 15.4 | 8.4 | 4.0 |  |  |  |  |  |  |  |  |  | 
C=CCSC1=C(C(=O)[O-])N2C(=O)[C@@H](NC(=O)/C(=N\O)c3csc(N)n3)[C@H]2SC1.[Na+] [D, 7β-{2-(2-aminothiazol-4-yl)-2-[(Z)-hydroxyimino]acetamido}-3-allylthio-3-cephem-4-carboxylic acid sodium salt] |  |  |  |  |  | 1.56 | 0.20 | 0.20 | 0.20 | 0.39 | 0.20 | 0.39 | 3.13 | 0.20 | 2/3
C=CC1=C(C(=O)O)N2C(=O)[C@@H](NC(=O)/C(=N\OCC(=O)O)c3csc(N)n3)[C@H]2SC1 [B, Cefixime] |  |  |  |  |  | 0.20 | 0.025 | 0.20 | 25 | 0.05 | 25 | 0.39 | >100 | 0.025 | 
C#CCSC1=C(C(=O)[O-])N2C(=O)[C@@H](NC(=O)/C(=N\O)c3csc(N)n3)[C@H]2SC1.[Na+] [A, 7β-{2-(2-aminothiazol-4-yl)-2-[(Z)-hydroxyimino]-acetamido}-3-(2-propynyl)thio-3-cephem-4-carboxylic acid sodium salt] |  |  |  |  |  | 0.78 | 0.10 | 0.10 | 0.20 | 0.20 | 0.20 | 0.20 | 1.56 | 0.05 | 0/3
